Where a SMILES comes first, the peptide text is derived from it.
What was measured:
[1] = Hydrolysis of dipeptides in human plasma; assay type: in vitro ADME; details: 37° C., 30 minutes; for Residual Rate: 10 mM dipeptide
Procedure: Each of the dipeptides shown in Table 1 below was added to 0.75 ml of plasma collected and prepared from human to give a concentration of 10 mM, followed by reaction at 37° C. for 30 minutes.

[2] = biological target: T1, γ-GTP (γ-glutamyl transferase) (Sus scrofa, UniProt P20735); assay: Hydrolysis of dipeptides by γ-GTP; assay type: biochemical; details: 5 mM dipeptide, Tris-HCl buffer 50 mM pH 7.0, γ-GTP from swine kidney, 37° C., 120 minutes
T1 construct: γ-GTP prepared from swine kidney was added to the solution; from tissue; host or cells: swine kidney

[3] = Hydrolysis of dipeptides in mouse plasma; assay type: in vitro ADME, C3H/He mice; details: 3.13 mM, 37° C.; for Residual Rate: mean of five mice
Procedure: Each of the dipeptides shown in Table 2 below was added to 0.05 ml of plasma collected and prepared from C3H/He mice (6 weeks of age, male, weighing 20 g) to give a concentration of 3.13 mM, followed by reaction at 37° C. for 2, 5, 10 and 20 minutes. Five mice were used for each test group, and the results are shown by the mean value.

[4] = Change in concentration in blood of dipeptides administered to mice; assay type: in vivo, C3H/He mice; details: tail vein, 250 μmoles/kg body weight, FIG. 1
Description: γ-L-Glutamyl-L-glutamine and L-alanyl-L-glutamine were respectively administered to C3H/He mice (6 weeks of age, male, weighing 20 g) through the tail vein at a dose of 250 μmoles/kg body weight, and blood was collected intermittently. Five mice were used for each test group, and the results are shown by the mean ±SEM.

[5] = Influence of administered dipeptides on renal glutamine level; assay type: in vivo, C3H/He mice; details: mice, tail vein; for Concentration of Glutamine in kidney: 250 γmoles/kg body weight, kidneys excised after 20 minutes, mean ±SEM, five mice
Procedure: γ-L-Glutamine-L-glutamine and L-alany-L-glutamine were respectively administered to C3H/He mice (6 weeks of age, male, weighing 20 g) through the tail vein at a dose of 250 γmoles/kg body weight, and after 20 minutes, the kidneys were excised. The glutamine level in the organ was compared to that prior to the administration of the dipeptides. Five mice were used for each test group, and the results are shown by the mean ±SEM.

[6] = Stability in solution under sterilizing conditions; assay type: physicochemical; details: solution 10 mM, pH 6.5, 110° C. for 60 minutes
[7] = Storage stability test at 40° C. for 30 days; assay type: physicochemical; details: in solution
[8] = Stability in nutrient preparations under heat sterilization; assay type: physicochemical
γ-glutamyl transferase = details: J. Biol. Chem., vol. 253, No. 6, p. 1799-1806 (1978); cited from earlier work
[9] = test system: γ-glutamyl cyclotransferase; details: J. Biol. Chem., vol. 253, No. 6, p. 1799-1806 (1978); cited from earlier work

T1 sequence (P20735 380-568 limits assumed): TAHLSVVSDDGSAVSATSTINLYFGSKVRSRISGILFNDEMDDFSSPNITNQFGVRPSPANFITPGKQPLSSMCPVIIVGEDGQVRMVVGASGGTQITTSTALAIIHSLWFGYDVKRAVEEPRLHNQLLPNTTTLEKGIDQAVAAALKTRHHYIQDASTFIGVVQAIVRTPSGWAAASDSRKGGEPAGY
T1 sequence (P20735 1-379 limits assumed): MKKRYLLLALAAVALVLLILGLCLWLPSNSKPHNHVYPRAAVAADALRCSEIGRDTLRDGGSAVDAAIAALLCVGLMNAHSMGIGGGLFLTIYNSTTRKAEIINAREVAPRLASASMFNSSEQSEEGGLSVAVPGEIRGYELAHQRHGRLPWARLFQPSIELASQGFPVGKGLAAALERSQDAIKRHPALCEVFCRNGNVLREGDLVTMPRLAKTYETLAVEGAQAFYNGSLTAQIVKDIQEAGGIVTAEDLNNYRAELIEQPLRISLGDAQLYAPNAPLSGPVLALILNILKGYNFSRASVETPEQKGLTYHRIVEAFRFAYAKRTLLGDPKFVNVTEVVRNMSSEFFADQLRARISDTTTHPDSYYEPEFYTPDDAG

Residual Rate [1] [%] | Residual Rate ([3]; 2 minutes) [%] | Residual Rate ([3]; 5 minutes) [%] | Residual Rate ([3]; 10 minutes) [%] | Residual Rate ([3]; 20 minutes) [%] | Disappearance of the dipeptide from blood [4] | Decomposition under sterilizing conditions [6] | Residual Rate after Sterilization [6] [%] | Decomposition in storage stability test [7] | Residual Rate after Storage at 40° C. for 30 days [7] [%] | Structure (SMILES) | Appearance (release) of glutamine in blood [4] | Concentration of Glutamine in kidney [5] [μmole/g wet weight] | other results
99 | 100 | 100 | 100 | 100 | slow | not decomposed at all | 100 | not decomposed at all | 100 | NC(=O)CC[C@H](NC(=O)CC[C@H](N)C(=O)O)C(=O)O [γ-L-Glutamyl-L-glutamine] | slow | 1.57 ± 0.12 | Hydrolysis in human plasma ([1]; 10 mM): substantially free of hydrolysis; Hydrolysis by γ-GTP [2]: almost completely hydrolyzed; Hydrolysis in mouse plasma ([3]; up to 20 minutes): not hydrolyzed at all; Renal glutamine level ([5]; 20 minutes after administration, compared to prior to administration): significantly high renal glutamine level; Stability under the sterilizing conditions ([8]; Example 2 jelly-like nutrient preparation, heated at 100° C. for 30 minutes): remained stable; Stability under the sterilizing conditions ([8]; Example 3 composition for oral nutrient supplementation, 110° C. for 60 minutes): remained stable; Substrate for γ-glutamyl transferase (γ-glutamyl transferase): effective substrate; Substrate for γ-glutamyl cyclotransferase [9]: effective substrate
84 |  |  |  |  |  |  |  |  |  | NCC(=O)N[C@@H](CCC(N)=O)C(=O)O [Glycyl-L-glutamine] (H-Gly-Gln-OH) |  |  | 
74 | 87 | 62 | 24 | 11 | disappeared extremely rapidly |  |  |  |  | C[C@H](N)C(=O)N[C@@H](CCC(N)=O)C(=O)O [L-Alanyl-L-glutamine, reference compound] (H-Ala-Gln-OH) | rapid release of glutamine into the blood | 1.14 ± 0.09 | 
 |  |  |  |  |  | 60% | 40 | 29% | 71 | NC(=O)CC[C@H](N)C(=O)O [L-Glutamine, reference compound] |  |  | 
58 |  |  |  |  |  |  |  |  |  | NC(=O)CC[C@H](NC(=O)[C@@H](N)CC(=O)O)C(=O)O [L-Aspartyl-L-glutamine] (H-Asp-Gln-OH) |  |  | 
